The source of these data is US20070135521A1, “Agent for Preventing Metabolic Syndrome” (YAMAHA HATSUDOKI KABUSHIKI KAISHA, priority 2005, published 2007).

Broadly, the LC50 is the concentration lethal to half of the exposed cells or organisms. Higher therefore signals a less lethal substance.

In data set [1] the test system is obese model mice fed with a high-fat diet. In words: Effect of astaxanthin monoester on obese model mice fed with a high-fat diet. It is filed as in vivo, male C57BL/6J strain mice. As for the experimental part:
Astaxanthin was administered to obese model mice fed with a high-fat diet, and the change in body weight, the amount of subcutaneous fat (in the inguinal region and the back), the amount of visceral fat (around the reproductive organs and around the kidney), the liver weight, the blood glucose level, and the insulin concentration in blood were examined in the following manner.
Four week old male C57BL/6J strain mice (SPF) purchased from CHARLES RIVER LABORATORIES JAPAN, INC. were used. The mice were preliminarily fed for 8 days and used for the test after they reached the age of 5 weeks. The mice were divided into three groups of 8 each, that is, a normal diet group, a high-fat diet group, and a high-fat diet+astaxanthin (AX) group, so that the average body weight was equal among the groups.
During the preliminary feeding period, the mice were given an ordinary powder diet (MF, Oriental Yeast Co., Ltd.), and during the test period of 16 weeks, the mice were given the ordinary powder diet or a high-fat diet having the composition shown in Table 2 below. As to drinking water, the mice were allowed to drink freely sterile distilled water from a water supply bottle.
The astaxanthin monoester prepared in Preparation Example 1 was dissolved in an olive oil (Wako Pure Chemical Industries, Ltd.) to prepare a solution containing astaxanthin monoester at a concentration of 60 mg/mL. This solution was administered to the high-fat diet+AX group and the olive oil to the other two groups in a volume of 0.05 mL/10 g body weight every day for 16 weeks from the start of the test (at the age of 5 weeks) to the age of 21 weeks, using a sonde for oral administration in the mice.
During the test period, the body weight was measured once a week using a scale. At the end of the test, the body weight was measured, and thereafter, the mice were fasted overnight and the blood glucose level was measured in the tail of each mouse using OneTouch Ultra™ (manufactured by Life Scan Inc., a blood glucose level measuring device). Next, blood was collected from the heart using a heparinized syringe with heparin Na. Immediately after the collection of blood, blood plasma was separated by centrifugation, and the obtained blood plasma was cryopreserved at −80° C. Then, the liver, the adipose tissue in the inguinal region, the adipose tissue around the reproductive organs, the adipose tissue around the kidney, and the adipose tissue in the back were collected and the weights thereof were measured. Thereafter, the insulin concentration in blood was measured with a commercially available kit (Mouse Insulin ELISA KIT (TMB) (AKRIN-011T): Shibayagi Co., Ltd.), using the blood plasma collected at the end of the test.
The different types of data obtained were expressed as average values±standard errors for each group. In order to test for statistically significant differences between the high-fat diet group and the high-fat diet+AX group or the normal diet group, a multiple comparison test (ANOVA) was performed using an analysis software (Stat View, Abacus Inc., USA), and a comparison between the groups was performed using Fisher's PLSD multiple comparison test. Differences were considered statistically significant when p<0.05.

Data set [2] concerns Human umbilical vein endothelial cells (HUVECs). Nature of the data set: Measurement of 50% lethal concentration for HUVEC (alamarBlue). The class given is cell-based. The settings on record: 72 hours incubation, 250 μM = maximum concentration dissolved in DMSO. The procedure: Human umbilical vein endothelial cells (HUVECs) (ATCC CRL-1730) were obtained from American Type Culture Collection and precultivated in an Endothelial Cell Growth Medium (CELL APPLICATIONS, USA) containing 10% bovine fetal serum supplemented with 1% Antibiotic-Antimycotic (GIBCO BRL, USA) under a 5% CO2 atmosphere at 37° C.
A Matrigel matrix (BD Biosciences, USA) was melted and kept at 4° C. on ice, and then, 50 μL of the matrix were transferred to each well of a 96-well tissue culture plate. The plate was incubated at 37° C. for at least one hour to solidify the matrix solution.
On the other hand, the astaxanthin monoester obtained in Preparation Example 1 was dissolved in dimethylsulfoxide (DMSO), and then diluted with distilled water to prepare stock test solutions in which the astaxanthin monoester was contained in 40 (v/v)% DMSO at 25000, 2500, 250, 25, and 2.5 μM, respectively. […]
After the incubation, 20 μL of a 90% alamarBlue reagent were added to individual wells, and incubated for an additional 6 hours. Then, the fluorescence intensity of each well was measured at an excitation wavelength of 530 nm and an emission wavelength of 590 nm using a Spectrafluor Plus plate reader to count the number of living cells. […] The 50% lethal concentration was calculated as the concentration at which the number of living cells was 50% of the number of cells at the start of the experiment.
(In general: Alamar Blue is a resazurin reagent that responds to reducing activity.)

Where [3] appears, read: high-fat diet+AX vs high-fat diet, end of 16-week test, FIG. 2.
The mark [4] stands for this setting: high-fat diet+AX vs high-fat diet, end of 16-week test, FIG. 3.

With astaxanthin monoester, in data set [1] (high-fat diet+AX group vs high-fat diet group, oral, every day for 16 weeks, 60 mg/mL in olive oil, 0.05 mL/10 g body weight, FIG. 1), the “change over time in mean body weight” value is recorded as “the increase in body weight tended to be suppressed”. Further, in data set [1] (setting [3]), the “mean weight of subcutaneous fat” value is on record as “the accumulation of fat was significantly suppressed” and the “mean weight of visceral fat” value was “the accumulation of fat was significantly suppressed”. In data set [1] (setting [4]), the “proportion of the liver weight to body weight” value is on record as “the proportion approached that in the case of the normal diet” and the “proportions of the mean weights of the adipose tissues to mean body weight” value is listed as “the increase was significantly suppressed”. For the same substance, the blood glucose level entry in data set [1] (high-fat diet+AX vs high-fat diet, fasted overnight, end of 16-week test, FIG. 5) is recorded as “maintained at the same level as that of the normal diet group”. For the same substance, the “insulin concentration in blood” value in data set [1] (high-fat diet+AX vs high-fat diet, plasma at end of 16-week test, FIG. 4) is recorded as “the insulin concentration was considerably suppressed”. The same substance showed an LC50 in data set [2] not below 250 µM.
